Test results reported in US8669347B2, “Truncated variant of the mammalian target for rapamycin (MTOR) protein” (UCL Business PLC, priority 2007, dated 2014).

Test system: Hek293 stable cell lines
Experiment: Cell proliferation assay (Resazurin based) of Hek293 stable cell lines
Parameters: species or system human
Conditions: overexpressing stable lines grown 7 days, six independent studies
Description: Hek293 stable cell lines, over-expressing mTORβ wt, mTORα wt or EGFP were seeded into a 96 well plate at various densities (250, 500, 1000 and 2000 cells per well) and grown under standard conditions for 7 days. Cell numbers were than measured in each well by a Resosurin based assay. Normalized growth curves for each cell line were calculated using data from six independent experiments (A). Western blot analysis of total cell lysates of stable cell lines with antibodies to c-myc and its transcription targets (B). The level of proteins was densitometrically measured, actin normalized and folds were calculated against EGFP expressing stable cell line (C).
HEK293 stable cell lines, overexpressing mTORβ wt, mTORβ kinase-dead or EGFP were seeded into 96 well plate at various densities (1000, 2000, 4000 and 8000 cells per well) and grown under standard conditions for 5 days. Cell numbers were then measured in each well by Resazurin based assay. Normalized growth curves for each cell line were calculated using data from six independent experiments (A). Western blot analysis of total cell lysates of stable cell lines with antibodies to c-myc and its transcription targets. The level of proteins was densitometrically measured, actin normalized and folds were calculated against EGFP expressing stable cell line (B). […]

## mTORα wt: full-length mammalian target for rapamycin protein, approximately 2549 amino acids (SEQ ID NO: 4)
  proliferation compared to control (EGFP) cells: no difference in proliferation
